Assay results from patent publication US4452778A, “Synergistic antibacterial compositions and method of treatment of infections caused by multiple antibiotic-resistant organisms” (Eli Lilly and Company, priority 1981, dated 1984).
Like-named read-outs stand apart in the source and are kept apart here.

Assays:
Pseudomonas aeruginosa = assay: Checkerboard broth dilution synergy study (mic); type: cell-based; conditions: Table II; for MIC: Pseudomonas aeruginosa, read-out: mic, drug alone
Serratia marcescens = assay: Checkerboard broth dilution synergy study (mic); type: cell-based; conditions: Table II; for MIC: Serratia marcescens, read-out: mic, drug alone
E. cloacae = assay: Checkerboard broth dilution synergy study (mic); type: cell-based; conditions: Table II; for MIC: Enterobacter cloacae, read-out: mic, drug alone
Klebsiella pneumoniae = assay: Checkerboard broth dilution synergy study (mic); type: cell-based; conditions: Table II; for MIC: Klebsiella pneumoniae, read-out: mic, drug alone
Proteus rettgeri = assay: Checkerboard broth dilution synergy study (mic); type: cell-based; conditions: Table II, strain 65
Proteus mirabilis = assay: Checkerboard broth dilution synergy study (mic); type: cell-based; conditions: Table II, strain Allen
Proteus vulgaris = assay: Checkerboard broth dilution synergy study (mic); type: cell-based; conditions: Table II; for MIC: Proteus vulgaris, read-out: mic, drug alone
E. coli = assay: Checkerboard broth dilution synergy study (mic); type: cell-based; conditions: Table II; for MIC: Escherichia coli, read-out: mic, drug alone
Pseudomonas maltophilia = assay: Checkerboard broth dilution synergy study (mic); type: cell-based; conditions: Table II; for MIC: Stenotrophomonas maltophilia, read-out: mic, drug alone
Acinetobacter sp. = assay: Checkerboard broth dilution synergy study (mic); type: cell-based; conditions: Table II; for MIC: Acinetobacter, read-out: mic, drug alone
[1] = single 1 mg/kg (i.m.), healthy volunteers; cited from earlier work

## NC[C@H]1O[C@H](O[C@H]2[C@H](O)[C@@H](O[C@H]3O[C@H](CO)[C@@H](O)[C@H](N)[C@H]3O)[C@H](N)C[C@@H]2N)[C@H](N)C[C@@H]1O [tobramycin]
Pseudomonas aeruginosa; strain 84
  MIC: 8 µg/mL
  mic of each drug in combination I + T: 1 µg/mL
Pseudomonas aeruginosa; strain 366
  MIC: 4 µg/mL
  mic of each drug in combination I + T: 2 µg/mL
Pseudomonas aeruginosa; strain 424
  MIC: 64 µg/mL
  mic of each drug in combination I + T: 0.5 µg/mL
Pseudomonas aeruginosa; strain 447
  MIC: 64 µg/mL
  mic of each drug in combination I + T: < 0.5 µg/mL
Pseudomonas aeruginosa; strain 1484
  MIC: 64 µg/mL
  mic of each drug in combination I + T: 2 µg/mL
Pseudomonas aeruginosa; strain Davis
  MIC: > 64 µg/mL
  mic of each drug in combination I + T: 1 µg/mL
Serratia marcescens; strain 100
  MIC: 16 µg/mL
  mic of each drug in combination I + T: 8 µg/mL
Serratia marcescens; strain 302-2
  MIC: 16 µg/mL
  mic of each drug in combination I + T: 1 µg/mL
Serratia marcescens; strain 796
  MIC: 64 µg/mL
  mic of each drug in combination I + T: 16 µg/mL
Serratia marcescens; strain 14142
  MIC: > 64 µg/mL
  mic of each drug in combination I + T: 4 µg/mL
Serratia marcescens; strain Townsend
  MIC: 32 µg/mL
  mic of each drug in combination I + T: 0.5 µg/mL
E. cloacae; strain 1246
  MIC: 16 µg/mL
  mic of each drug in combination I + T: 0.5 µg/mL
E. cloacae; strain 1253
  MIC: 32 µg/mL
  mic of each drug in combination I + T: 2 µg/mL
E. cloacae; strain 1415
  MIC: 32 µg/mL
  mic of each drug in combination I + T: < 0.015 µg/mL
E. cloacae; strain B293
  MIC: > 64 µg/mL
  mic of each drug in combination I + T: 8 µg/mL
Klebsiella pneumoniae; strain 130
  MIC: 16 µg/mL
  mic of each drug in combination I + T: 0.5 µg/mL
Klebsiella pneumoniae; strain 214-1
  MIC: 32 µg/mL
  mic of each drug in combination I + T: 0.03 µg/mL
Klebsiella pneumoniae; strain 463
  MIC: 16 µg/mL
  mic of each drug in combination I + T: < 0.015 µg/mL
Klebsiella pneumoniae; strain 512
  MIC: > 64 µg/mL
  mic of each drug in combination I + T: 0.06 µg/mL
Klebsiella pneumoniae; strain 933
  MIC: 32 µg/mL
  mic of each drug in combination I + T: 0.5 µg/mL
Klebsiella pneumoniae; strain 1204-2
  MIC: > 64 µg/mL
  mic of each drug in combination I + T: 0.03 µg/mL
Proteus rettgeri; Providencia rettgeri, read-out: mic, drug alone
  MIC: 64 µg/mL
Proteus rettgeri
  mic of each drug in combination I + T: 1 µg/mL
Proteus mirabilis; Proteus mirabilis, read-out: mic, drug alone
  MIC: 32 µg/mL
Proteus mirabilis
  mic of each drug in combination I + T: 1 µg/mL
Proteus vulgaris; strain 363
  MIC: 64 µg/mL
  mic of each drug in combination I + T: 1 µg/mL
Proteus vulgaris; strain Shide
  MIC: 32 µg/mL
  mic of each drug in combination I + T: 1 µg/mL
E. coli; strain 46-2
  MIC: > 64 µg/mL
  mic of each drug in combination I + T: 4 µg/mL
E. coli; strain 77-3
  MIC: 64 µg/mL
  mic of each drug in combination I + T: 0.25 µg/mL
E. coli; strain 136-3
  MIC: 64 µg/mL
  mic of each drug in combination I + T: 4 µg/mL
E. coli; strain 1260
  MIC: > 64 µg/mL
  mic of each drug in combination I + T: 0.5 µg/mL
E. coli; strain 1262
  MIC: 16 µg/mL
  mic of each drug in combination I + T: 8 µg/mL
E. coli; strain Briley
  MIC: 4 µg/mL
  mic of each drug in combination I + T: 8 µg/mL
E. coli; strain Dill
  MIC: > 64 µg/mL
  mic of each drug in combination I + T: 4 µg/mL
E. coli; strain 1253
  mic of each drug in combination I + T: 4 µg/mL
E. coli; strain 1415
  mic of each drug in combination I + T: 8 µg/mL
Pseudomonas maltophilia; strain 10
  MIC: 64 µg/mL
  mic of each drug in combination I + T: 8 µg/mL
Pseudomonas maltophilia; strain 11
  MIC: 4 µg/mL
  mic of each drug in combination I + T: 2 µg/mL
Pseudomonas maltophilia; strain 505
  MIC: 32 µg/mL
  mic of each drug in combination I + T: 0.5 µg/mL
Acinetobacter sp.; strain 28-1
  MIC: 0.5 µg/mL
  mic of each drug in combination I + T: 0.5 µg/mL
Acinetobacter sp.; strain 28-2
  MIC: 4 µg/mL
  mic of each drug in combination I + T: 0.5 µg/mL
Acinetobacter sp.; strain 106
  MIC: 1 µg/mL
  mic of each drug in combination I + T: 0.5 µg/mL
Acinetobacter sp.; strain 107
  MIC: 4 µg/mL
  mic of each drug in combination I + T: 0.5 µg/mL
Acinetobacter sp.; strain 109
  MIC: 1 µg/mL
  mic of each drug in combination I + T: 0.5 µg/mL
[1]
  peak serum concentrations: 4.4 µg/mL
